The term EC50 denotes the concentration that produces a half-maximal response.

Entries after “also recorded” stand apart in the source; their conditions may differ.

These results are taken from patent US8129425B2, “Small organic molecule regulators of cell proliferation” (Curis, Inc., priority 2000, dated 2012).

Assay [1] has as its system hedgehog-responsive Gli-Luc reporter-construct. Kind of assay: Gli-Luc hedgehog pathway reporter assay in [10T1/2(s12)] cells. Type of assay: cell-based, murine. The following applies: Table 1. Summed up: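 10T1/2(s12) cells carrying a Gli-Luc reporter, switched to 0.5% FBS medium, then exposed to compound for 24 hr; luciferase read by luminescence. Screen A: 1-2 μM with Hh protein at 0.01 μg/ml (about EC30); Screen B: 5 μM without Hh. Activity expressed as percent of full Hh-induced signal.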
A general note: In a reporter assay the amount or activity of a reporter protein is the signal.

The test system of the next assay is ptc-lacZ skin punches. Kind of assay: Skin explants from ptc-lacZ pups (X-Gal stain). It counts as cell-based, mouse. The following applies: agonist alone, cultured 6 days. The method, then: Skin from ptc-lacZ E17.5 pups was excised with a 2 mm skin punch. Those skin punches were then cultured for 6 days in control media, or media including either agonist B or D or Hh protein, or media including both an agonist and Hh protein. The explants were then stained with X-Gal stain.

The test system of assay [2] is cerebellar neuron precursors. Nature of the assay: Cerebellar neuron precursor proliferation (3H-thymidine incorporation). It counts as cell-based, rat. The following applies: for induction of 3H thymidine incorporation: absence of Shh. As for the experimental part: In order to test the efficacy of Hedgehog signaling agonists, the ability of the agonists to stimulate the proliferation of cerebellar neuron precursors was determined. Cerebellar granule neuron precursors are known to respond to Hh protein by proliferating. To test the agonists, cerebellar neurons were dissected out of postnatal (one week) rat brains, and placed into primary cell culture. Treatment agents were added once, on the first day of culture (0 DIV). Cells were left in culture until 2 DIV, when 3H-thymidine was added for 5 hours; the amount of incorporation by the cells of this 3H-thymidine provides a measure of the level of proliferation of the cells. Cells were then lysed, and the incorporation of 3H-thymidine was determined. The positive control was Hh protein, at 1.0 μg/ml final concentration. Hh protein alone caused approximately a 20-fold increase in 3H-thymidine incorporation, consistent with the known ability of Shh to stimulate proliferation of these cells. Non-Hh-protein-stimulated cells, including cells treated with control vehicle (DMSO), had very low levels of proliferation. […] At 5.0 μM, the p-cyanophenyl compound B caused 10.2-fold induction of 3H-thymidine incorporation. […] At 1.0, 0.3, or 0.1 μM, D caused 16-, 17-, or 13-fold induction, respectively, of 3H thymidine incorporation into the cells.
(In general: Dividing cells build labelled thymidine or BrdU into new DNA.)

In assay [3] the test system is patched (ptc-lacZ β-galactosidase reporter). Nature of the assay: Ptc-lacZ reporter mice assay (X-gal staining of tissues). Type of assay: in vivo. As for the experimental part: Mice with a β-galactosidase transgene (ptc-lacZ mice) under the regulatory control of the patched locus express the β-galactosidase protein in the same cells where the endogenous mouse patched gene is expressed. The β-galactosidase protein can thus be used as a faithful reporter of the expression of the endogenous patched gene.
Ptc-lacZ mice were divided into four treatment groups and were treated with the following compounds or combinations of compounds for four days, beginning on the first day after birth (dipal-Shh=dipalmitoylated Sonic hedgehog):
The vehicle for the agonist was 10% DMSO in PBS (pH 7.2). The agonist was injected from a 4.67 mM stock dissolved in the vehicle solution.
18 hours following the last injections, the mice were sacrificed and the following tissues were collected: skull, kidney, lung, scapula, skin and heart. All tissues were fixed in 0.2% glutaraldehyde, 5 mM EDTA (pH 8.0), 20 mM MgCl2, 100 mM Na2HPO4 for 30 minutes before staining in 1 mg/ml X-gal, 12.5 mM potassium ferrocyanide, 12.5 mM potassium ferricyanide, 2 mM MgCl2, 0.01% deoxycholate, 0.02% NP-40, and 100 mM Na2HPO4 for 30 hours. Tissues were judged for relative intensity and photographed.
FIG. 42: Ptc-lacZ mice were divided into two treatment groups and were treated with the following compounds for three days, beginning on the first day after birth:
The vehicle for the agonist was 10% DMSO in PBS (pH 7.2). The agonist was injected from a 1.0 mM stock dissolved in the vehicle solution.
Eighteen hours following the last injections, the mice were sacrificed and the forelimbs were collected and processed as described above.
In a third experiment, Ptc-lacZ mice were divided into five treatment groups and were treated with the following compounds for four days, beginning on the first day after birth:
The vehicle for the agonist was 10% DMSO in PBS (pH 7.2). The agonist was injected from stocks of 0.3, 0.1 and 0.03 mM dissolved in the vehicle solution.

As to `CNC1CCC(N(Cc2ccc(OC)c(-c3ccc(C#N)cc3)c2)C(=O)c2sc3ccccc3c2Cl)CC1` (centres unmarked) [D], in assay [1], the EC50 was under 100 nM. Also, the “X-Gal staining of skin explants” value in the assay with ptc-lacZ skin punches is listed as “Analogous results”. The “induction of 3H thymidine incorporation” value in assay [2] (0.1 μM) is 13 fold; in assay [2] (0.3 μM), 17 fold; in assay [2] (1.0 μM) it was 16 fold. Also, in assay [2] (absence of Hh protein treatment), the “stimulation of 3H-thymidine incorporation” value is “strongly stimulated 3H-thymidine incorporation”. In addition, the “upregulation of hedgehog pathway in forelimbs (β-galactosidase staining)” value in assay [3] (0.1 mg/kg/injection 4X/day, four days) is “very weak upregulation”; in assay [3] (0.3 mg/kg/injection 4X/day, four days) it was “greater than that seen with injections of Hh protein at 10 mg/kg/injection”; in assay [3] (0.9 mg/kg/injection 4X/day, four days), “highest levels of upregulation; also recorded: greater than that seen with injections of Hh protein at 10 mg/kg/injection”; in assay [3] (4 mg/kg/injection 4X/day, three days, absence of dipal-Shh), “strong upregulation in the nerves, blood vessels, cartilage, and connective tissue; also recorded: greater than that seen with injections of dipal-Shh at 10 mg/kg/injection”. Further, the “dose dependence of hedgehog pathway upregulation in vivo” value in assay [3] (0.1-0.9 mg/kg/injection 4X/day) is recorded as “dose-responsive manner”.
